{"source": "patent US20180369136A1", "about": "“DEVICES AND METHODS FOR TRANSDERMAL TREATMENT OF BASAL CELL CARCINOMA” (NORTH CAROLINA STATE UNIVERSITY, priority 2015, published 2018)", "origin": "cited, not measured here", "key": {"yeast and bacteria cells": {"tested_on": "yeast and bacteria cells", "conditions": "in vitro"}, "[1]": {"tested_on": "immunosuppressed syngeneic mice", "conditions": "in vivo"}, "[2]": {"tested_on": "basal cell carcinoma tumor", "conditions": "oral itraconazole"}, "[3]": {"tested_on": "Hedgehog signaling in basal cell carcinoma", "conditions": "basal cell carcinoma in vitro model"}}, "data": [{"molecule": "O=c1[nH]cc(F)c(=O)[nH]1", "note": "[fluorouracil, 5-fluorouracil]", "values": [{"measurement": "mutagenicity", "setting": "yeast and bacteria cells", "value": "causes mutations"}, {"measurement": "mutagenicity", "setting": "[1]", "value": "causes mutations"}]}, {"molecule": "CCC(C)n1ncn(-c2ccc(N3CCN(c4ccc(OCC5COC(Cn6cncn6)(c6ccc(Cl)cc6Cl)O5)cc4)CC3)cc2)c1=O", "note": "(stereo not drawn) [itraconazole]", "values": [{"measurement": "side effects", "setting": "[2]", "value": "grade 4 congestive heart failure"}, {"measurement": "solubility in ethanol and water", "setting": "ethanol and water", "value": "poor solubility"}]}, {"molecule": "C=C1CC[C@H](O)C/C1=C/C=C1\\CCC[C@]2(C)[C@@H]([C@H](C)CCCC(C)C)CC[C@@H]12", "note": "[vitamin D3]", "values": [{"measurement": "solubility in aqueous media", "setting": "aqueous media", "value": "does not readily dissolve"}, {"measurement": "Hedgehog signaling", "setting": "[3]", "value": "suppress Hedgehog signaling"}]}]}
